One assay deals with H1781 cells. As to the kind of experiment: Antiproliferation WST-1 assay, H1781. Type of assay: cell-based. The note with it: NCI-H1781, NSCLC, HER-2 G776ins V_G/C, lapatinib-resistant. How it is done:
(§1) WST-1 is better than MTT for analyzing cell proliferation, because it can be reduced to soluble formazan by dehydrogenase in mitochondria and has little toxicity to cells. Cell proliferation was determined using WST-1 dye (Beyotime Inst Biotech, China) according to manufacture’s instructions. Brieﬂy, 5 × 10^3 cells per well were seeded in a 96-well plate, grown at 37 ℃ for 24 h, and then placed in serum-starved conditions for a further 6 h. Subsequently, cells were treated with compounds (Table 1) at increasing concentrations in the presence of 10% FBS for 24 or 48h. After 10 µL WST-1 dye was added to each well, cells were incubated at 37 ℃ for 2 h and the absorbance was ﬁnally determined at 450 nm using a microplate reader.

A further assay deals with T1, Aurora A (Homo sapiens, UniProt O14965).
T1 construct: 6xHis (N); made in house; host or cells: baculovirus expression system
T1 sequence (O14965 1-403): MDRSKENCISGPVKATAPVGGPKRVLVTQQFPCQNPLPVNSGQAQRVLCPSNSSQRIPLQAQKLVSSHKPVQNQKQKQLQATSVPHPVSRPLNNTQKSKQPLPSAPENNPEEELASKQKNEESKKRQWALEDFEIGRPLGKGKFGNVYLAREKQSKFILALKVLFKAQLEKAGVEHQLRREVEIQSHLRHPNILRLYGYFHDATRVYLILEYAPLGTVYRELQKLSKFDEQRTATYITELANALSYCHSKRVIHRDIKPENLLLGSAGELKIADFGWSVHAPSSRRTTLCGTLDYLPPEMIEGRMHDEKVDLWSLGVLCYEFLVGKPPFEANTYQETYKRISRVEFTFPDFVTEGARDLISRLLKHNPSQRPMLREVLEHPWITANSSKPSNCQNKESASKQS
Kind of assay: Serine/threonine kinase profiling ([γ-32P] ATP), Aurora A. Type of assay: biochemical. The note with it: ATP concentration = Km. How it is done:
Assays for 4 serine/threonine kinases using radio labeled [γ-^32P] ATP (GE Healthcare, Piscataway, NJ) were performed in 96 well plates. Mitogen-activated protein kinase p38α (p38α), was expressed as N-terminal FLAG-tagged protein using a baculovirus expression system. Aurora-A and -B were expressed as N-terminal 6xHis tagged protein using a baculovirus expression system. CDK2/CycA was expressed as C-terminal 6His-tagged CDK2, and N-terminal GST-tagged Cyclin A protein using a baculovirus expression system.
The reaction conditions were optimized for each kinase: p38α (100 ng/well of enzyme, 1 μg/well of MBP (Wako Pure Chemical Ind., Osaka, Japan), 0.1 μCi/well of [γ-^32P] ATP, 60 min reaction at 30 ℃); Aurora-A and -B (50 ng/well of enzyme, 30 μM of Aurora substrate peptide, 0.2 μCi/well of [γ-^32P] ATP, 60 min reaction at room temperature); CDK2/CycA (1.8 mUnits/well of enzyme, 1 μg/well of Histone H1 (Calbiochem), 0.2 μCi/well of [γ-^32P] ATP, 20 min reaction at room temperature).
All the four enzyme reactions were performed in 25 mM HEPES, pH 7.5, 10 mM magnesium acetate, 1 mM dithiothreitol and 0.5 μM ATP containing optimized concentration of enzyme, substrate and radiolabeled ATP as described above in a total volume of 50 μl. […] The radioactivity was counted by a TopCount scintillation counter (PerkinElmer).

For a further assay, the target named is T2, cSRC (Homo sapiens, UniProt P12931).
T2 construct: purchased Millipore Corp
Kind of assay: Tyrosine kinase profiling (Alphascreen), cSRC. To be noted: ATP concentration = Km. Format: biochemical. How it is done:
The cytoplasmic domain of vascular endothelial growth factor receptor 2 (VEGFR2), platelet-derived growth factor receptor α (PDGFRα), cSRC were purchased from Millipore Corp. Assays for 3 tyrosine kinases were performed in 384 well plates using the Alphascreen® system (PerkinElmer) at room temperature. Enzyme reactions were performed in 50 mM Tris–HCl, pH7.5, 5 mM MnCl2, 5 mM MgCl2, 0.01% Tween-20, 2 mM dithiothreitol and 0.1 μg/ml biotinylated poly-GluTyr (4:1) containing optimized concentration of enzyme and ATP as described below.
Prior to the kinase reaction, compound and enzyme were incubated for 5 min at room temperature. The reactions were initiated by adding ATP. After the reaction period as described below at room temperature, the reactions were stopped by the addition of 25 μl of 100 mM EDTA, 10 μg/ml Alphascreen streptavidin donor beads and 10 μg/ml acceptor beads described below in 62.5 mM HEPES, pH 7.4, 250 mM NaCl, and 0.1% BSA. Plates were incubated in the dark for more than 12 h and then read by EnVision 2102 Multilabel Reader (PerkinElmer). The well containing substrate and enzyme without compound was used as total reaction control. […]

A further assay deals with A549 cells. As to the kind of experiment: Antiproliferation WST-1 assay, A549. Format: cell-based, human. To be noted: WST-1 assay; A549 carcinomic human alveolar basal epithelial cell; read-out: Cellular IC50, A549. On the procedure: as §1
For a further assay, the system named is A431 cells. Kind of assay: Antiproliferation WST-1 assay, A431. Type of assay: cell-based, human. The note with it: Homo sapiens, A-431, WST-1 assay; A431, overexpression of EGFR; read-out: Cellular IC50, A431. How it is done: as §1
For the next assay, the system named is MDA-MB-453 cells. As to the kind of experiment: Antiproliferation WST-1 assay, MDA-MB-453. To be noted: Homo sapiens, breast cancer, HER-2++, PTEN deficiency. Format: cell-based. On the procedure:
as §1

T2 sequence (P12931 whole entry, species assumed): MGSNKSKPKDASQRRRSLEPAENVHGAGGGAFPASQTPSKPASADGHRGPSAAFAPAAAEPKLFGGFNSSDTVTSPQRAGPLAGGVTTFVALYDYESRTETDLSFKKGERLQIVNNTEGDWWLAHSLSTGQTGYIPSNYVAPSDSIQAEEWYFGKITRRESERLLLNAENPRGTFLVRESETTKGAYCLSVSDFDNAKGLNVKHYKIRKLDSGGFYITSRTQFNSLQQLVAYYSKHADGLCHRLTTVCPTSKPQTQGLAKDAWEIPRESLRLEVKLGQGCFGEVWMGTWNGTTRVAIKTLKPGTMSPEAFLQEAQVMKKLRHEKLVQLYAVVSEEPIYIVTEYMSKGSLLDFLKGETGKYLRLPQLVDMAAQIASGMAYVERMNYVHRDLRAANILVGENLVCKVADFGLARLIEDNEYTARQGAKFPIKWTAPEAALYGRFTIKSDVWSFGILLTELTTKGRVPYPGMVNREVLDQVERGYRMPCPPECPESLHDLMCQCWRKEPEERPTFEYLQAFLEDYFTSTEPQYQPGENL

In the case of `O=C(Nc1ccc2ncnc(Nc3cccc(Br)c3)c2c1)c1ccc(C(F)(F)F)cc1O` [Compound 21, N-(4-(3-bromophenylamino)quinazolin-6-yl)-2-hydroxy-4-(trifluoromethyl)benzamide], the IC50 in the assay with H1781 cells came to 0.77 ± 0.034 µM; at Aurora A, 58.4 ± 0.78 µM; at cSRC it was 11.9 ± 0.78 µM; in the assay with A549 cells it was 1.64 ± 0.027 µM; with A431 cells, 0.67 ± 0.002 µM; with MDA-MB-453 cells, 0.92 ± 0.019 µM.

The record behind these values is paper PMC3731256, “Optimization of Substituted 6-Salicyl-4-Anilinoquinazoline Derivatives as Dual EGFR/HER2 Tyrosine Kinase Inhibitors” (PLoS ONE, 2013).
